Measured values: patent US20160278367A1, “Pesticidal Composition” (priority 2013, published 2016)

Columns and labels:
[1] = test system: hematophagous arthropods; test: terpenes fatal to hematophagous arthropods (test not described)
[2] = solution and stable suspension of citral; assay type: physicochemical
Description: (§1) In one embodiment the terpene component includes one or more terpenes which contain oxygen. Citral, for example citral 95, is an oxygenated […], C10H16O CAS No. 5392-40-5 (3,7-dimethyl-2,6-octadien-1-a1). A stable suspension of citral can be formed up to about 2500 ppm. Citral can be made into a solution at up to about 500 ppm. A stable suspension of hollow glucan particles incorporating citral of 25 ppt citral can be made.
as §1, with “(3,7-dimethyl-2,6-octadien-1-a1) .” for “(3,7-dimethyl-2,6-octadien-1-a1).”

Compound	fatal to hematophagous arthropods [1]	citral can be made into a solution at up to ([2]; solution)	stable suspension of citral can be formed up to ([2]; suspension)
C=CC(=C)CCC=C(C)C [myrcene]	fatal		
C=C(C)[C@H]1CC=C(C)CC1 [redistilled limonene, limonene]	fatal		
C=C(C)C1CC=C(C)C(=O)C1 (stereo not drawn) [carvone]	fatal		
C=CCc1ccc(O)c(OC)c1 [eugenol]	fatal		
CC(=O)/C=C/C1=C(C)CCCC1(C)C [beta-ionone]	fatal		
C=CC(C)(O)CCC=C(C)C (stereo not drawn) [linalool]	fatal		
CC(C)=CCC/C(C)=C/CO [geraniol]	fatal		
CC(C)=CCCC(C)=CC=O (mixture of isomers) [Citral, 3,7-dimethyl-2,6-octadien-1-a1]		about 500 ppm	about 2500 ppm
